Publication PMC11845477, “Exploring the principles behind antibiotics with limited resistance” (Nature Communications, 2025)

How the values were obtained:
[1] = system: A. baumannii ATCC 17978 (SEN) and A. baumannii ATCC BAA-1605 (MDR); experiment: Adaptive laboratory evolution (ALE), relative MIC of evolved lines; assay type: cell-based, Acinetobacter baumannii; conditions: for Relative MIC (log10): AB-SEN (Acinetobacter baumannii ATCC 17978)
Description: (§1) Using the same set of bacterial strains, we initiated adaptive laboratory evolution with the aim to maximize the level of antibiotic resistance in the populations achieved during a longer, but fixed time period.
(§2) An established protocol for adaptive laboratory evolution[46],[73] was followed to propagate populations with the highest resistance levels. Starting with an antibiotic concentration that caused approximately 50% growth inhibition, ten parallel populations for each antibiotic-ancestor strain combination were grown for 72 hours at 37 °C with continuous shaking (300 RPM). MHB broth medium was used unless stated otherwise. After each incubation, 20 µl of each culture was transferred to four new wells containing fresh medium with increasing antibiotic concentrations (0.5×, 1×, 1.5×, and 2.5× the previous concentration) in a chessboard layout to monitor potential cross-contamination. Growth was monitored by measuring OD600 using a Biotek Synergy 2 microplate reader, and only populations grown in the highest drug concentration with an OD600 > 0.2 were transferred further.
(§3) A robotic liquid handling system was used to automatically prepare a 11 to 16-step serial dilution in 384-well microtiter plates (Greiner). A final concentration of 5 × 10^5 bacterial cells per mL were inoculated into each well containing 60 µL MHB medium. Bacterial cultures were incubated at 37 °C with continuous shaking (Infors shaker, 900 rpm with 3 mm throw) for 18 hours (2 replicates from each). Cell growth was monitored by measuring the optical density (OD600 values, using Biotek Synergy microplate reader). MIC was defined as the antibiotic concentration of complete growth inhibition (i.e., OD600 < 0.05). Relative MIC was calculated as follows:1 relativeMIC=MICevolved/MICancestor […]
(§4) Supplementary Figure 4. Resistance levels following adaptive laboratory evolution across bacterial strains. The level of resistance was measured as the fold change in relative MIC between evolved and ancestral strains after ~60 days of adaptive laboratory evolution. Data are grouped by bacterial strain (A. baumannii (AB), E. coli (EC), K. pneumoniae (KP), and P. aeruginosa (PA)) and categorized as either multidrug-resistant (MDR) or sensitive (SEN). Each data point represents a laboratory evolved line, and boxplots show the median, first and third quartiles, with whiskers indicating the 5th and 95th percentiles.
(§5) Statistical analysis was performed using two-sided Dunn’s post-hoc test with Benjamini-Hochberg correction for multiple comparisons (****/ ***/ **/ * indicates p < 0.0001/ 0.001/ 0.01/ 0.05). For detailed information on antibiotic and bacterial species, see Supplementary Table 1. For mode of action groups, refer to Table 1. Source data are provided as a Source Data file.

[2] = system: E. coli ATCC 25922 (SEN) and E. coli NCTC13846 (MDR); experiment: as above; assay type: cell-based, Escherichia coli; conditions: for Relative MIC (log10): EC-SEN (Escherichia coli ATCC 25922)
Description: as §1, §2, §3, §4, §5
(1 picture or pasted object on this page, not shown here)

[3] = AB-SEN (ATCC 17978), evolved line 1, MIC of evolved line / MIC of ancestor
[4] = AB-SEN (ATCC 17978), evolved line 2, MIC of evolved line / MIC of ancestor
[5] = AB-SEN (ATCC 17978), evolved line 3, MIC of evolved line / MIC of ancestor
[6] = AB-SEN (ATCC 17978), evolved line 4, MIC of evolved line / MIC of ancestor
[7] = AB-SEN (ATCC 17978), evolved line 5, MIC of evolved line / MIC of ancestor
[8] = AB-SEN (ATCC 17978), evolved line 6, MIC of evolved line / MIC of ancestor
[9] = AB-SEN (ATCC 17978), evolved line 7, MIC of evolved line / MIC of ancestor
[10] = AB-SEN (ATCC 17978), evolved line 8, MIC of evolved line / MIC of ancestor
[11] = AB-SEN (ATCC 17978), evolved line 9, MIC of evolved line / MIC of ancestor
[12] = AB-SEN (ATCC 17978), evolved line 10, MIC of evolved line / MIC of ancestor
[13] = evolved line 2 adapted to the named antibiotic
[14] = evolved line 6 adapted to the named antibiotic
[15] = evolved line 9 adapted to the named antibiotic
[16] = evolved line 10 adapted to the named antibiotic
[17] = Acinetobacter baumannii ATCC 17978 (AB-SEN), evolved line 1
[18] = Acinetobacter baumannii ATCC 17978 (AB-SEN), evolved line 2
[19] = Acinetobacter baumannii ATCC 17978 (AB-SEN), evolved line 3
[20] = Acinetobacter baumannii ATCC 17978 (AB-SEN), evolved line 4
[21] = Acinetobacter baumannii ATCC 17978 (AB-SEN), evolved line 5
[22] = Acinetobacter baumannii ATCC 17978 (AB-SEN), evolved line 6
[23] = Acinetobacter baumannii ATCC 17978 (AB-SEN), evolved line 7
[24] = Acinetobacter baumannii ATCC 17978 (AB-SEN), evolved line 8
[25] = Acinetobacter baumannii ATCC 17978 (AB-SEN), evolved line 9
[26] = Acinetobacter baumannii ATCC 17978 (AB-SEN), evolved line 10
[27] = Escherichia coli ATCC 25922 (EC-SEN), evolved line 1
[28] = Escherichia coli ATCC 25922 (EC-SEN), evolved line 2
[29] = Escherichia coli ATCC 25922 (EC-SEN), evolved line 3
[30] = Escherichia coli ATCC 25922 (EC-SEN), evolved line 4
[31] = Escherichia coli ATCC 25922 (EC-SEN), evolved line 5
[32] = Escherichia coli ATCC 25922 (EC-SEN), evolved line 6
[33] = Escherichia coli ATCC 25922 (EC-SEN), evolved line 7
[34] = Escherichia coli ATCC 25922 (EC-SEN), evolved line 8
[35] = Escherichia coli ATCC 25922 (EC-SEN), evolved line 9
[36] = Escherichia coli ATCC 25922 (EC-SEN), evolved line 10

## CN[C@@H]1[C@@H](O[C@H]2O[C@H](CO)[C@@H](N)[C@H](O)[C@H]2O)OC2C[C@@H](N)[C@@H](O[C@H]3[C@H](O)[C@@H](O)[C@H](N)C[C@@H]3N)OC2[C@@H]1O (stereo partly shown) [Apramycin]
[1]; [3]
  Relative MIC: 32
[1]; [4]
  Relative MIC: 64
[1]; [5]
  Relative MIC: 32
[1]; [6]
  Relative MIC: 16
[1]; [7]
  Relative MIC: 32
[1]; [8]
  Relative MIC: 16
[1]; [9]
  Relative MIC: 64
[1]; [10]
  Relative MIC: 32
[1]; [11]
  Relative MIC: 32
[1]; [12]
  Relative MIC: 32
[1]; [13]
  Relative MIC (log10): 1.806
[1]; evolved line 3 adapted to the named antibiotic
  Relative MIC (log10): 1.505
[1]; [14]
  Relative MIC (log10): 1.204
[1]; [15]
  Relative MIC (log10): 1.505
[1]; [16]
  Relative MIC (log10): 1.505
[1]; [17]
  Relative MIC: 32
[1]; [18]
  Relative MIC: 64
[1]; [19]
  Relative MIC: 32
[1]; [20]
  Relative MIC: 16
[1]; [21]
  Relative MIC: 32
[1]; [22]
  Relative MIC: 16
[1]; [23]
  Relative MIC: 64
[1]; [24]
  Relative MIC: 32
[1]; [25]
  Relative MIC: 32
[1]; [26]
  Relative MIC: 32

## Nc1nc(-n2cc(C(=O)O)c(=O)c3cc(F)c(N4CC(O)C4)c(Cl)c32)c(F)cc1F [Delafloxacin]
[1]; [3]
  Relative MIC: 256
[1]; [4]
  Relative MIC: 128
[1]; [5]
  Relative MIC: 256
[1]; [6]
  Relative MIC: 256
[1]; [7]
  Relative MIC: 512
[1]; [8]
  Relative MIC: 256
[1]; [9]
  Relative MIC: 128
[1]; [10]
  Relative MIC: 64
[1]; [11]
  Relative MIC: 128
[1]; [12]
  Relative MIC: 128
[1]; [13]
  Relative MIC (log10): 2.107
[1]; evolved line 4 adapted to the named antibiotic
  Relative MIC (log10): 2.408
[1]; evolved line 5 adapted to the named antibiotic
  Relative MIC (log10): 2.709
[1]; [14]
  Relative MIC (log10): 2.408
[1]; [15]
  Relative MIC (log10): 2.107
[1]; [17]
  Relative MIC: 256
[1]; [18]
  Relative MIC: 128
[1]; [19]
  Relative MIC: 256
[1]; [20]
  Relative MIC: 256
[1]; [21]
  Relative MIC: 512
[1]; [22]
  Relative MIC: 256
[1]; [23]
  Relative MIC: 128
[1]; [24]
  Relative MIC: 64
[1]; [25]
  Relative MIC: 128
[1]; [26]
  Relative MIC: 128
[2]; EC-SEN (ATCC 25922), evolved line 1, MIC of evolved line / MIC of ancestor
  Relative MIC: 128
[2]; EC-SEN (ATCC 25922), evolved line 2, MIC of evolved line / MIC of ancestor
  Relative MIC: 1024
[2]; EC-SEN (ATCC 25922), evolved line 3, MIC of evolved line / MIC of ancestor
  Relative MIC: 512
[2]; EC-SEN (ATCC 25922), evolved line 4, MIC of evolved line / MIC of ancestor
  Relative MIC: 512
[2]; EC-SEN (ATCC 25922), evolved line 5, MIC of evolved line / MIC of ancestor
  Relative MIC: 128
[2]; EC-SEN (ATCC 25922), evolved line 6, MIC of evolved line / MIC of ancestor
  Relative MIC: 1024
[2]; EC-SEN (ATCC 25922), evolved line 7, MIC of evolved line / MIC of ancestor
  Relative MIC: 2048
[2]; EC-SEN (ATCC 25922), evolved line 8, MIC of evolved line / MIC of ancestor
  Relative MIC: 256
[2]; EC-SEN (ATCC 25922), evolved line 9, MIC of evolved line / MIC of ancestor
  Relative MIC: 2048
[2]; EC-SEN (ATCC 25922), evolved line 10, MIC of evolved line / MIC of ancestor
  Relative MIC: 512
[2]; [13]
  Relative MIC (log10): 3.0103
[2]; [14]
  Relative MIC (log10): 3.0103
[2]; evolved line 7 adapted to the named antibiotic
  Relative MIC (log10): 3.311
[2]; [15]
  Relative MIC (log10): 3.311
[2]; [16]
  Relative MIC (log10): 2.709
[2]; [27]
  Relative MIC: 128
[2]; [28]
  Relative MIC: 1024
[2]; [29]
  Relative MIC: 512
[2]; [30]
  Relative MIC: 512
[2]; [31]
  Relative MIC: 128
[2]; [32]
  Relative MIC: 1024
[2]; [33]
  Relative MIC: 2048
[2]; [34]
  Relative MIC: 256
[2]; [35]
  Relative MIC: 2048
[2]; [36]
  Relative MIC: 512

## C[C@@H]1CN2c3c(cc4c(N5C(=O)OC[C@@H]5C)noc4c3F)CC3(C(=O)NC(=O)NC3=O)[C@H]2[C@H](C)O1 [Zoliflodacin]
[2]; EC-SEN (E. coli ATCC 25922), evolved line 1 vs ancestor
  Relative MIC: 64
[2]; EC-SEN (E. coli ATCC 25922), evolved line 2 vs ancestor
  Relative MIC: 8
[2]; EC-SEN (E. coli ATCC 25922), evolved line 3 vs ancestor
  Relative MIC: 128
[2]; EC-SEN (E. coli ATCC 25922), evolved line 4 vs ancestor
  Relative MIC: 128
[2]; EC-SEN (E. coli ATCC 25922), evolved line 5 vs ancestor
  Relative MIC: 256
[2]; EC-SEN (E. coli ATCC 25922), evolved line 6 vs ancestor
  Relative MIC: 32
[2]; EC-SEN (E. coli ATCC 25922), evolved line 7 vs ancestor
  Relative MIC: 64
[2]; EC-SEN (E. coli ATCC 25922), evolved line 8 vs ancestor
  Relative MIC: 128
[2]; EC-SEN (E. coli ATCC 25922), evolved line 9 vs ancestor
  Relative MIC: 64
[2]; EC-SEN (E. coli ATCC 25922), evolved line 10 vs ancestor
  Relative MIC: 128
[2]; evolved line 3
  Relative MIC (log10): 2.107 log10
[2]; evolved line 4
  Relative MIC (log10): 2.107 log10
[2]; evolved line 5
  Relative MIC (log10): 2.408 log10
[2]; evolved line 8
  Relative MIC (log10): 2.107 log10
[2]; evolved line 10
  Relative MIC (log10): 2.107 log10
[2]; [27]
  Relative MIC: 64
[2]; [28]
  Relative MIC: 8
[2]; [29]
  Relative MIC: 128
[2]; [30]
  Relative MIC: 128
[2]; [31]
  Relative MIC: 256
[2]; [32]
  Relative MIC: 32
[2]; [33]
  Relative MIC: 64
[2]; [34]
  Relative MIC: 128
[2]; [35]
  Relative MIC: 64
[2]; [36]
  Relative MIC: 128

## Tridecaptin M152-P3
[2]; EC-SEN (E. coli ATCC 25922), evolved line 1 of the given antibiotic
  MIC of evolved line: 32 µg/mL
[2]; EC-SEN (E. coli ATCC 25922), evolved line 2 of the given antibiotic
  MIC of evolved line: 64 µg/mL
[2]; EC-SEN (E. coli ATCC 25922), evolved line 3 of the given antibiotic
  MIC of evolved line: 32 µg/mL
[2]; EC-SEN (E. coli ATCC 25922), evolved line 4 of the given antibiotic
  MIC of evolved line: 32 µg/mL
[2]; EC-SEN (E. coli ATCC 25922), evolved line 6 of the given antibiotic
  MIC of evolved line: 32 µg/mL
[2]; EC-SEN (E. coli ATCC 25922), evolved line 7 of the given antibiotic
  MIC of evolved line: 32 µg/mL
[2]; EC-SEN (E. coli ATCC 25922), evolved line 8 of the given antibiotic
  MIC of evolved line: 32 µg/mL
[2]; EC-SEN (E. coli ATCC 25922), evolved line 9 of the given antibiotic
  MIC of evolved line: 32 µg/mL
[2]; EC-SEN (E. coli ATCC 25922), evolved line 10 of the given antibiotic
  MIC of evolved line: 64 µg/mL
